# Biological target: hENPP2 (Homo sapiens, UniProt Q13822)
# Assay: Human ENPP2 (hENPP2) biochemical assay using LPC as substrate
# Conditions: 150 µM LPC (palmitoyl 16:0), 37°C for 30 min
# Summary of the method: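 Enzyme at 1 or 3 µg/mL final in Tris-HCl pH 8.5, NaCl, KCl, CaCl2, fatty-acid-free BSA; reaction started with 150 µM LPC 16:0 (as added), 30 min at 37°C. Released choline developed with choline oxidase/peroxidase/TOOS/4-aminoantipyrine plus EGTA stop, read at 555 nm after 30 min; 1/3 dilutions from 50 µM give IC50.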
row,SMILES,IC50 [nM]
1,"C[C@@H]1C[C@H](N2Cc3cnc(Nc4ccc(OC(F)(F)F)cc4)nc3C2)CCN1C(=O)c1ccnc(NS(C)(=O)=O)c1 [compound 205, N-[4-[(2R,4R)-2-methyl-4-[2-[4-(trifluoromethoxy)anilino]-5,7-dihydropyrrolo[3,4-d]pyrimidin-6-yl]piperidine-1-carbonyl]-2-pyridyl]methanesulfonamide]",0.01 to 100
2,"Cc1cc(C)cc(Nc2ncc3c(n2)CN([C@@H]2CCN(C(=O)c4cccc(NS(C)(=O)=O)c4)[C@H](C)C2)C3)c1 [compound 206, N-[3-[(2R,4R)-4-[2-(3,5-dimethylanilino)-5,7-dihydropyrrolo[3,4-d]pyrimidin-6-yl]-2-methyl-piperidine-1-carbonyl]phenyl]methanesulfonamide]",> 1000
3,"Cc1cc(Nc2ncc3c(n2)CN([C@@H]2CCN(C(=O)c4ccnc(NS(C)(=O)=O)c4)[C@H](C)C2)C3)ccc1F [compound 207, N-[4-[(2R,4R)-4-[2-(4-fluoro-3-methyl-anilino)-5,7-dihydropyrrolo[3,4-d]pyrimidin-6-yl]-2-methyl-piperidine-1-carbonyl]-2-pyridyl]methanesulfonamide]",0.01 to 100
4,"Cc1cc(C)cc(Nc2ncc3c(n2)CN([C@@H]2CCN(C(=O)c4cc(NS(C)(=O)=O)ncc4F)[C@H](C)C2)C3)c1 [compound 208, N-[4-[(2R,4R)-4-[2-(3,5-dimethylanilino)-5,7-dihydropyrrolo[3,4-d]pyrimidin-6-yl]-2-methyl-piperidine-1-carbonyl]-5-fluoro-2-pyridyl]methanesulfonamide]",0.01 to 100
5,"CC(=O)Nc1cc(C(=O)N2CC[C@@H](N3Cc4cnc(Nc5cc(C)cc(C)c5)nc4C3)C[C@H]2C)ccn1 [compound 209, N-[4-[(2R,4R)-4-[2-(3,5-dimethylanilino)-5,7-dihydropyrrolo[3,4-d]pyrimidin-6-yl]-2-methyl-piperidine-1-carbonyl]-2-pyridyl]acetamide]",500 to 1000
6,"CCS(=O)(=O)Nc1cc(C(=O)N2CC[C@@H](N3Cc4cnc(Nc5cc(C)cc(C)c5)nc4C3)C[C@H]2C)ccn1 [compound 210, N-[4-[(2R,4R)-4-[2-(3,5-dimethylanilino)-5,7-dihydropyrrolo[3,4-d]pyrimidin-6-yl]-2-methyl-piperidine-1-carbonyl]-2-pyridyl]ethanesulfonamide]",0.01 to 100
7,"Cc1cc(C)cc(Nc2ncc3c(n2)CN([C@@H]2CCN(C(=O)c4cncc(NS(C)(=O)=O)c4)[C@H](C)C2)C3)c1 [compound 211, N-[5-[(2R,4R)-4-[2-(3,5-dimethylanilino)-5,7-dihydropyrrolo[3,4-d]pyrimidin-6-yl]-2-methyl-piperidine-1-carbonyl]-3-pyridyl]methanesulfonamide]",> 1000
8,"Cc1cc(C)cc(Nc2ncc3c(n2)CN([C@@H]2CCN(C(=O)c4ccnc(NS(=O)(=O)C(F)(F)F)c4)[C@H](C)C2)C3)c1 [compound 212, N-[4-[(2R,4R)-4-[2-(3,5-dimethylanilino)-5,7-dihydropyrrolo[3,4-d]pyrimidin-6-yl]-2-methyl-piperidine-1-carbonyl]-2-pyridyl]-1,1,1-trifluoro-methanesulfonamide]",100 to 500
9,"Cc1cc(C)cc(Nc2ncc3c(n2)CN([C@@H]2CCN(C(=O)c4cc(NS(C)(=O)=O)ncc4C)[C@H](C)C2)C3)c1 [compound 218, N-[4-[(2R,4R)-4-[2-(3,5-dimethylanilino)-5,7-dihydropyrrolo[3,4-d]pyrimidin-6-yl]-2-methyl-piperidine-1-carbonyl]-5-methyl-2-pyridyl]methanesulfonamide]",0.01 to 100

# The remaining lines, values ahead:
row,IC50 [nM],SMILES
1,0.01 to 100,"C[C@@H]1C[C@H](N2Cc3cnc(Nc4cc(F)cc(Cl)c4)nc3C2)CCN1C(=O)c1ccnc(NS(C)(=O)=O)c1 [compound 213, N-[4-[(2R,4R)-4-[2-(3-chloro-5-fluoro-anilino)-5,7-dihydropyrrolo[3,4-d]pyrimidin-6-yl]-2-methyl-piperidine-1-carbonyl]-2-pyridyl]methanesulfonamide]"
2,100 to 500,"C[C@@H]1C[C@@H](N2Cc3cnc(Nc4cc(F)cc(Cl)c4)nc3C2)CCN1C(=O)c1ccnc(NS(C)(=O)=O)c1 [compound 214, N-[4-[(2R,4S)-4-[2-(3-chloro-5-fluoro-anilino)-5,7-dihydropyrrolo[3,4-d]pyrimidin-6-yl]-2-methyl-piperidine-1-carbonyl]-2-pyridyl]methanesulfonamide]"
3,0.01 to 100,"Cc1cc(Nc2ncc3c(n2)CN([C@@H]2CCN(C(=O)c4ccnc(NS(C)(=O)=O)c4)[C@H](C)C2)C3)ccc1C(F)(F)F [compound 215, N-[4-[(2R,4R)-2-methyl-4-[2-[3-methyl-4-(trifluoromethyl)anilino]-5,7-dihydropyrrolo[3,4-d]pyrimidin-6-yl]piperidine-1-carbonyl]-2-pyridyl]methanesulfonamide]"
4,0.01 to 100,"Cc1cc(Nc2ncc3c(n2)CN([C@H]2CCN(C(=O)c4ccnc(NS(C)(=O)=O)c4)[C@H](C)C2)C3)ccc1C(F)(F)F [compound 216, N-[4-[(2R,4S)-2-methyl-4-[2-[3-methyl-4-(trifluoromethyl)anilino]-5,7-dihydropyrrolo[3,4-d]pyrimidin-6-yl]piperidine-1-carbonyl]-2-pyridyl]methanesulfonamide]"
5,0.01 to 100,"COc1cc(Nc2ncc3c(n2)CN([C@@H]2CCN(C(=O)c4ccnc(NS(C)(=O)=O)c4)[C@H](C)C2)C3)ccc1Cl [compound 217, N-[4-[(2R,4R)-4-[2-(4-chloro-3-methoxy-anilino)-5,7-dihydropyrrolo[3,4-d]pyrimidin-6-yl]-2-methyl-piperidine-1-carbonyl]-2-pyridyl]methanesulfonamide]"
6,100 to 500,"C[C@@H]1C[C@@H](N2Cc3cnc(Nc4cccc(OC5CC5)c4)nc3C2)CCN1C(=O)c1ccnc(NS(C)(=O)=O)c1 [compound 219, N-[4-[(2R,4S)-4-[2-[3-(cyclopropoxy)anilino]-5,7-dihydropyrrolo[3,4-d]pyrimidin-6-yl]-2-methyl-piperidine-1-carbonyl]-2-pyridyl]methanesulfonamide]"

# Reference: patent EP3782997A1, “FUSED PYRIMIDINE COMPOUNDS AND PHARMACEUTICAL COMPOSITIONS THEREOF FOR THE TREATMENT OF FIBROTIC DISEASES” (Galapagos N.V., priority 2019, dated 2021)
